The record followed here is patent US9675658B2, “Method of treating inflammation, allergy and asthma with a purified extract (ATC2) isolated from Pseudolysimachion rotundam var. subintegrum containing abundant amount of active ingredient” (YUNGJIN PHARMACEUTICAL CO., LTD, priority 2012, dated 2017).

Common to all, as to assay type: in vivo, BALB/c mice
Assay [1] has as its system OVA-sensitized/challenged mouse model. The assay is described as follows: Airway hyperresponsiveness test (Penh, whole body plethysmography, methacholine). The following applies: 30 mg/kg PO. The protocol:
In order to confirm the anti-asthmatic effect of test samples prepared in Examples using by airway hyperresponsiveness test in a OVA-sensitized/challenged mouse model, following test was performed by the method disclosed in the literature (Elias, J. A. et al., J. Clin. Invest., 111, pp 297-297, 2003).
(§1) Specific pathogen-free female BALB/c mice (about 20 g), aged 6 weeks, which were routinely screened serologically for relevant respiratory pathogens, were purchased from ORIENT Co. (Seoul, Korea) and acclimated with the experimental environment for 1 week.
(§2) Briefly, mice were sensitized by intraperitoneal injection of 20 μg OVA (Ovalbumin; A5503, Sigma, St. Louis, Mo.), which was emulsified in 2 mg aluminum hydroxide in 200 μl of PBS buffer (pH 7.4), biweekly. The mice were challenged through the airways with OVA (1% in PBS) for 30 min using an ultrasonic nebulizer (NE-U12; Omron Corp., Tokyo, Japan) from the 28th day to 34th day after the initial sensitization. 24 hrs after the antigen treatment, the airway hyperresponsiveness was determined and the mice were sacrificed 48 hrs after the last challenge. The mice were sacrificed with an overdose of pentobarbital (Entobal®, Hanrim Pharm. Co. Ltd.) 24 h after the last challenge, and a tracheotomy was performed. After 1.2 ml of physiological saline solution (PBS) was instilled into the lungs, bronchoalveolar lavage fluid (BALF) was obtained by aspiration three times (total 1.5 ml) via tracheal cannulation. […]
In order to evaluate the airway hyperresponsiveness of the mice, the airway resistance was determined using by apparatus (One chamber whole body plethymography, OCP3000, All Medicus, Seoul. Korea) and the determined value was statistically calculated by Pehn value (Enhance Pause) reflecting on the degree of airway obstruction. The Penh value was determined for 3 mins by the process of determining the basal value at the eupnea phase and determining the Penh value after inhaling PBS with Ultrasonic nebulizer (NE-U12, IMRON Corp., Tokyo, JAPAN) for 3 mins.
Thereafter, various concentrations of methacholine (A2251, Sigma, St. Louis, Mo.), 12, 25 and 50 mg/ml, were inhaled with increasing concentration to determine the Pehn values. The increase of Penh value was expressed as percentage (%) after the methacholine inhalation and the Penh value of basal line was set to 100%. […]

The test system is the same in assay [2]. The assay is described as follows: Lung histology, H&E inflammation score. The following applies: lung tissue, score 0-3; 30 mg/kg PO. The protocol:
In order to confirm the anti-asthmatic effect of test samples prepared in Examples, following histopathological analysis on broncho-alveolar tissue was performed by the method disclosed in the literature (Kwak Y G. et al., J. Clin. Invest., 111, pp 1083-1092, 2003).
The delivered lung tissues of BALB/c mice which had not perform broncho-alveolar lavage was fixed for 24 h in 10% neutral-buffered formalin. After being embedded in paraffin, then made into 4-μm thickness sections, the tissue was stained with H&E solution (hematoxylin; Sigma MHS-16 and eosin, Sigma HT110-I-32) and the inflammation score of five regions in each section chosen in a randomized manner, was determined. (Inflammation score 0: inflamed cells is not found in bronchial surrounding, Inflammation score 1: inflamed cells is sporadically found in bronchial surrounding, Inflammation score 2: thin inflamed cell layer is found in most of bronchial surrounding, Inflammation score 3: thick inflamed cell layer is found in most of bronchial surrounding).

Assay [3] shares this test system. The assay is described as follows: Level of IgE and OVA-specific IgE in blood serum (ELISA). The following applies: 30 mg/kg PO. On the procedure: In order to confirm the inhibition effect of test samples prepared in Examples on the level of IgE and OVA-specific IgE in blood serum, following test was performed by the method disclosed in the literature (Kay, A. B., The New England Journal of Medicine, 344, pp 30-37, 2001).
The blood serum and bronchoalveolar lavage fluid (BALF) prepared in Experimental Example 1 was recovered to determine the level of IgE and OVA-specific IgE in blood serum.
The blood serum and bronchoalveolar lavage fluid (BALF) was added to 96-well plates (ELISA plate) and coated with 0.1M NaHCO3 buffer solution (pH 8.3) containing 20 μg/mlof OVA (Sigma, Mo., USA) at 4° C. overnight. After inhibiting nonspecific reaction using by PBS containing 1% bovine serum albumin, the serum for testing was diluted to 1:400 and reacted together for 2 hours at room temperature. After washing, the serum was reacted with diluted (×300) anti-mouse IgE monoclonal antibody (MCA419, Serotec, Oxford, UK) for 2 hours and with diluted (×4000) HRP-conjugated goat anti-rat IgG polyclonal A (STAR110P, Serotec, UK) for 1 hours at room temperature. After washing, the solution was stained with 3,3′,5,5′-tetramethylbenzidine (52-00-02, KPL) substrate and the reaction was stopped by 2N H2SO4 to determine the absorbance using by spectroscopy (Versamax, Molecular Devices, US) at 450 nm.
Background: ELISA stands for enzyme-linked immunosorbent assay.

The test system is the same in assay [4]. The assay is described as follows: Goblet cell plasia, PAS staining of lung tissue. The following applies: ratio of goblet cell in bronchiolar epithelial cell; 30 mg/kg PO. On the procedure: In order to confirm the anti-asthmatic effect of test samples prepared in Examples, following goblet cell plasia analysis on broncho-alveolar tissue was performed by the method disclosed in the literature (Lee K S. et al., FASEB J., 20, pp 455-465, 2006).
The delivered lung tissues of BALB/c mice which had not perform broncho-alveolar lavage was fixed for 24 h in 10% neutral-buffered formalin. After being embedded in paraffin, then made into 4-μm thickness sections, the tissue was stained with Periodic acid Schiff (PAS stain kit, T-K7308, IMEB, CA, USA) to determine the ratio of goblet cell in bronchiolar epithelial cell

Assay [5] shares this test system. The assay is described as follows: Preliminary determination of total serum IgE level in OVA-sensitized/challenged mouse model. The note with it: 30 mg/kg PO 1 h prior to OVA inhalation. On the procedure: In order to found the purified extract showing more pharmacologically potent activity than the crude extract prepared in comparative Example, following preliminary test was performed by the method disclosed in the literature (Elias, J. A. et al., J. Clin. Invest., 111, pp 297-297, 2003).
1-1. Animal Sensitization and Airway Challenge
as §1
as §2, with “performed.” for “performed. After 1.2 ml of physiological saline solution (PBS) was instilled into the lungs, bronchoalveolar lavage fluid (BALF) was obtained by aspiration three times (total 1.5 ml) via tracheal cannulation.”

The test system is the same in assay [6]. The assay is described as follows: Level of Th2 cytokines (IL-4, IL-5, IL-13) and IL-1β in BALF (ELISA). The note with it: 30 mg/kg PO. The protocol: In order to confirm the inhibition effect of test samples prepared in Examples on the level of Th2 cytokines (IL-4, IL-5 and IL-13) and IL-1β in bronchoalveolar lavage fluid (BALF), following test was performed by the sandwich enzyme immunosorbent assay method disclosed in the literature (Renz H. et al., J. Exp. Med., […], pp 1175-1180, 1993).
The blood serum and bronchoalveolar lavage fluid (BALF) was added to 96-well plates (ELISA plate) coated with cytokine antibody to induce antigen-antibody reaction for 2 hours at room temperature. The level of Th2 cytokines (IL-4, IL-5 and IL-13) and IL-1β in bronchoalveolar lavage fluid (BALF) was determined using by ELISA kit (Biosource Int. CA, USA) specifically reacting with each cytokine according to the manufacture's manual.

Assay [7] shares this test system. The assay is described as follows: Level of eosinophil and inflammatory cells in BALF. The following applies: 30 mg/kg PO. On the procedure: In order to confirm the inhibition effect of test samples prepared in Examples on the level of eosinophil and inflammatory cells in bronchoalveolar fluid (BALF), following test was performed by the method disclosed in the literature (Chen M. et al., Immunolgy, pp 376-384, 2011).
The bronchoalveolar lavage fluid (BALF) prepared in Experimental Example 1 was recovered to determine the level of inflammatory cells.
The total inflammatory cell number was assessed by the counting of cells in at least five squares of a hemocytometer after excluding dead cells by staining with trypan blue (Daigle I. et al., Swiss Med Wkly, 131, pp 231-7, 2001). 100 μl of BALF was loaded onto a slide and centrifuged (200×g, 4° C., 10 min) to fix the cells onto the slide using a Cellspin machine (Cyto12.5+clip5, Hanil Science Industrial, Korea). The cells were stained by Diff-Quick® Stain reagents (Sysmex, Cat No. 38721, Switzerland) according to the manufacturer's instructions. Statistical significance was determined by Student's two-tailed t-test for independent means and the critical level for significance was set at P<0.05.

For `CC(C)(O)c1ccccc1CC[C@@H](SCC1(CC(=O)O)CC1)c1cccc(/C=C/c2ccc3ccc(Cl)cc3n2)c1` [M30, Montelukast], the “Penh Value” in assay [1] (methacholine 0 mg/Ml) was 0.49 ± 0.04. Also, the “Penh Value” in assay [1] (methacholine 12.5 mg/Ml) came to 1.54 ± 0.20. Further, in assay [1] (methacholine 25 mg/Ml), the “Penh Value” is given as 1.98 ± 0.37. In addition, the “Penh Value” in assay [1] (methacholine 50 mg/Ml) is 2.51 ± 0.36. Moreover, the Inflammation score in assay [2] was found to be 1.25 ± 0.13. In assay [3], the “level of IgE in serum” value was determined as 4.76 ± 0.73 µg/mL. Moreover, in assay [3] (blood serum), the “level of OVA-specific IgE” value was determined as 0.09 ± 0.02 µg/mL. Besides, the “PAS + cells/bronchiole” value in assay [4] is 39.21 ± 2.34%. The total IgE in blood serum in assay [5] was determined as 1.82 ± 0.4 µg/mL. In assay [6], the IL-1β level was 187.03 ± 47.17 pg/mL, the IL-4 level worked out at 32.60 ± 4.53 pg/mL, the IL-5 level stood at 69.74 ± 7.17 pg/mL and the IL-13 level was found to be 25.93 ± 4.13 pg/mL. In assay [7], the No. of eosinolphil is listed as 52.03 ± 4.06 10^3 cells/mouse and the “No. of inflammatory cells” value is reported as 106.67 ± 6.48 10^3 cells/mouse.
